Test results as given in ChEMBL document CHEMBL1201862, “PubChem BioAssay data set” (2004).
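Cells were grown in 96-well plates and exposed to each compound for 48 hours at five concentrations; endpoints were interpolated linearly between bracketing concentrations, or set to the highest concentration if not reached. GI50: concentration for 50% inhibition of growth.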 Calls of active or inactive are those of the source. Cut-off read from the data, not from the text of the source: active = GI50 up to about 1.1 µM and inactive = higher.

How the values were obtained:
Experiment in all cases: growth of human tumour cells (NCI), 48 h
M14 = tested on: M14
PC-3 = tested on: PC-3
TK-10 = tested on: TK-10
HCT-15 = tested on: HCT-15
RPMI-8226 = tested on: RPMI-8226
SR = tested on: SR
HT-29 = tested on: HT-29
KM12 = tested on: KM12
SF-295 = tested on: SF-295
NCI-H23 = tested on: NCI-H23
LOX IMVI = tested on: LOX IMVI
MDA-MB-435 = tested on: MDA-MB-435
SK-MEL-28 = tested on: SK-MEL-28
SNB-19 = tested on: SNB-19
EKVX = tested on: EKVX
SW-620 = tested on: SW-620
A549 = tested on: A549
NCI-H226 = tested on: NCI-H226
CCRF-CEM = tested on: CCRF-CEM
OVCAR-4 = tested on: OVCAR-4

Compound	GI50 (M14)	GI50 (PC-3)	GI50 (TK-10)	GI50 (HCT-15) [µM]	GI50 (RPMI-8226)	GI50 (SR)	GI50 (HT-29)	GI50 (KM12)	GI50 (SF-295)	GI50 (NCI-H23)	GI50 (LOX IMVI)	GI50 (MDA-MB-435)	GI50 (SK-MEL-28)	GI50 (SNB-19)	GI50 (EKVX)	GI50 (SW-620)	GI50 (A549)	GI50 (NCI-H226)	GI50 (CCRF-CEM)	GI50 (OVCAR-4)
CCOC(=O)/C=C/C1OC(C)(C)OC1/C=C/C(=O)OCC (stereo not drawn)	37.7 µM (inactive)	44.9 µM (inactive)	39.3 µM (inactive)	23.4	24.8 µM (inactive)	15.1 µM (inactive)	18.2 µM (inactive)	25.4 µM (inactive)	48.6 µM (inactive)	40.6 µM (inactive)	27 µM (inactive)	29 µM (inactive)	28.4 µM (inactive)	33.9 µM (inactive)	29.8 µM (inactive)	19.7 µM (inactive)	40.9 µM (inactive)	> 100 µM (inactive)	17.2 µM (inactive)	32.4 µM (inactive)
CCCN(CCC)C(=S)N/N=C/c1cccc(C)n1	< 0.01 µM (active)	0.0773 µM (active)	0.142 µM (active)	0.0438	0.0239 µM (active)	0.0571 µM (active)	< 0.01 µM (active)	0.107 µM (active)	0.258 µM (active)	0.275 µM (active)	0.141 µM (active)	0.521 µM (active)	0.778 µM (active)	0.533 µM (active)	0.552 µM (active)	0.054 µM (active)	0.108 µM (active)	0.129 µM (active)	< 0.01 µM (active)	< 0.01 µM (active)
COc1ccc2c(c1)CCc1c-2n(CCN(C)C)c2ccc(OC)cc12	3.6 µM (inactive)	12.1 µM (inactive)	24.2 µM (inactive)	11.4	4.92 µM (inactive)	3.95 µM (inactive)	3.44 µM (inactive)	7.53 µM (inactive)	18.3 µM (inactive)	16.3 µM (inactive)	7.89 µM (inactive)	6.32 µM (inactive)	9.48 µM (inactive)	11.6 µM (inactive)	31.2 µM (inactive)	5.37 µM (inactive)	15 µM (inactive)	3.03 µM (inactive)	2.38 µM (inactive)	25.4 µM (inactive)
COc1cc(C)c2c(c1C=O)Oc1c(c(C)c(O)c3c1C(O)OC3=O)OC2=O (stereo not drawn) [STICTIC ACID]	37.4 µM (inactive)	34.4 µM (inactive)	> 100 µM (inactive)	17.6	16 µM (inactive)	16 µM (inactive)	41.8 µM (inactive)	19.6 µM (inactive)	49.2 µM (inactive)	26.5 µM (inactive)	28.4 µM (inactive)	50.5 µM (inactive)	> 100 µM (inactive)	14.5 µM (inactive)	32.6 µM (inactive)	57.9 µM (inactive)	> 100 µM (inactive)	37.6 µM (inactive)	> 10 µM (inactive)	25.5 µM (inactive)
CC(=O)OCCOCCN1CCN(C2=C(Cl)C(=O)c3c(O)ccc(O)c3C2=O)CC1	0.458 µM (active)	1.51 µM (inactive)	0.46 µM (active)	0.365	0.249 µM (active)	0.0444 µM (active)	0.796 µM (active)	2.15 µM (inactive)	1.93 µM (inactive)	0.684 µM (active)	0.423 µM (active)	0.71 µM (active)	1.04 µM (active)	3.04 µM (inactive)	1.67 µM (inactive)	0.179 µM (active)	2.1 µM (inactive)	2.89 µM (inactive)	0.0662 µM (active)	0.627 µM (active)
CC(=O)N1C=Cc2c(c(C)c3c([nH]c4ccccc43)c2C)C1	7.28 µM (inactive)	4.95 µM (inactive)	10.8 µM (inactive)	2.1	14.7 µM (inactive)	34.2 µM (inactive)	4.58 µM (inactive)	2.9 µM (inactive)	8.22 µM (inactive)	5.92 µM (inactive)	4.07 µM (inactive)	13 µM (inactive)	15.3 µM (inactive)	10.2 µM (inactive)	0.479 µM (active)	2.51 µM (inactive)	4.54 µM (inactive)	10.3 µM (inactive)	12.8 µM (inactive)	2.13 µM (inactive)
CC1=NOC(=O)/C1=C/c1ccc2c(c1)OCO2	35.3 µM (inactive)	21 µM (inactive)	39.2 µM (inactive)	20.8	21.8 µM (inactive)	15.9 µM (inactive)	24.4 µM (inactive)	19.1 µM (inactive)	26.7 µM (inactive)	37.3 µM (inactive)	19 µM (inactive)	23.4 µM (inactive)	30.8 µM (inactive)	30.7 µM (inactive)	77.3 µM (inactive)	21.1 µM (inactive)	61.8 µM (inactive)	21.6 µM (inactive)	20.7 µM (inactive)	63.1 µM (inactive)
COC(=O)NC1=NNC(=O)c2ccccc2N1	> 100 µM (inactive)	> 100 µM (inactive)	> 100 µM (inactive)	> 100	> 100 µM (inactive)	> 100 µM (inactive)	> 100 µM (inactive)	> 100 µM (inactive)	> 100 µM (inactive)	> 100 µM (inactive)	> 100 µM (inactive)	> 100 µM (inactive)	> 100 µM (inactive)	> 100 µM (inactive)	> 100 µM (inactive)	> 100 µM (inactive)	> 100 µM (inactive)	> 100 µM (inactive)	> 100 µM (inactive)	> 100 µM (inactive)
O=C1C(Cl)=C(N2CCN(C3=C(Cl)C(=O)c4ccccc4C3=O)CC2)C(=O)c2ccccc21	1.53 µM (inactive)	7.31 µM (inactive)	1.96 µM (inactive)	1.61	0.436 µM (active)	0.179 µM (active)	2.23 µM (inactive)	4.81 µM (inactive)	7.62 µM (inactive)	1.58 µM (inactive)	1.71 µM (inactive)	1.86 µM (inactive)	1.94 µM (inactive)	14.9 µM (inactive)	1.79 µM (inactive)	1.17 µM (inactive)	12.1 µM (inactive)	4.25 µM (inactive)	0.162 µM (active)	1.58 µM (inactive)
C1COC(NC(C2CC2)C2CC2)=N1 [RILMENIDINE]	> 100 µM (inactive)	> 100 µM (inactive)	> 100 µM (inactive)	> 100	> 100 µM (inactive)	> 100 µM (inactive)	> 100 µM (inactive)	> 100 µM (inactive)	> 100 µM (inactive)	> 100 µM (inactive)	> 100 µM (inactive)	> 100 µM (inactive)	> 100 µM (inactive)	> 100 µM (inactive)	> 100 µM (inactive)	> 100 µM (inactive)	> 100 µM (inactive)	> 100 µM (inactive)	> 100 µM (inactive)	> 100 µM (inactive)
NC(=O)C(Nc1c(Cl)cccc1Cl)c1cc2cc(Br)ccc2nc1Cl (stereo not drawn)	33 µM (inactive)	38.9 µM (inactive)	34.6 µM (inactive)	24.4	31.5 µM (inactive)	12.2 µM (inactive)	52.8 µM (inactive)	38 µM (inactive)	58.9 µM (inactive)	44.6 µM (inactive)	59.6 µM (inactive)	19.5 µM (inactive)	> 100 µM (inactive)	74.3 µM (inactive)	25.8 µM (inactive)	37.6 µM (inactive)	63.1 µM (inactive)	45.5 µM (inactive)	33.2 µM (inactive)	46.3 µM (inactive)
CC1(C)C(OC(=O)c2ccccc2)C[C@]23CCC[C@](C)(C[C@@H](O)C12)C3 (stereo partly drawn)	19.9 µM (inactive)	11.5 µM (inactive)	29.5 µM (inactive)	18.4	23.9 µM (inactive)	9.91 µM (inactive)	16.1 µM (inactive)	16.7 µM (inactive)	13.9 µM (inactive)	16.9 µM (inactive)	17 µM (inactive)	18 µM (inactive)	15.8 µM (inactive)	23.6 µM (inactive)	19.9 µM (inactive)	13.9 µM (inactive)	16.3 µM (inactive)	18.8 µM (inactive)	11.7 µM (inactive)	23.1 µM (inactive)
Oc1ccccc1-c1n[nH]c(-c2ccccc2O)n1	2.38 µM (inactive)	2.24 µM (inactive)	3.27 µM (inactive)	0.149	2.44 µM (inactive)	0.807 µM (active)	3.91 µM (inactive)	1.49 µM (inactive)	2.52 µM (inactive)	1.71 µM (inactive)	2.06 µM (inactive)	> 100 µM (inactive)	> 100 µM (inactive)	–	2.11 µM (inactive)	2.55 µM (inactive)	2.21 µM (inactive)	4.38 µM (inactive)	1.47 µM (inactive)	2.36 µM (inactive)
Cc1ccc(/N=N/N(C)C(=O)C(C)N)cc1 (stereo not drawn)	> 100 µM (inactive)	> 100 µM (inactive)	> 100 µM (inactive)	> 100	16.1 µM (inactive)	26.9 µM (inactive)	> 100 µM (inactive)	> 100 µM (inactive)	> 100 µM (inactive)	> 100 µM (inactive)	> 100 µM (inactive)	> 100 µM (inactive)	> 100 µM (inactive)	> 100 µM (inactive)	> 100 µM (inactive)	8.53 µM (inactive)	–	> 100 µM (inactive)	> 100 µM (inactive)	> 100 µM (inactive)
CC1(C)CC2(C)CC1CC2O (stereo not drawn)	> 100 µM (inactive)	> 100 µM (inactive)	> 100 µM (inactive)	> 100	> 100 µM (inactive)	> 100 µM (inactive)	> 100 µM (inactive)	> 100 µM (inactive)	> 100 µM (inactive)	> 100 µM (inactive)	> 100 µM (inactive)	> 100 µM (inactive)	> 100 µM (inactive)	> 100 µM (inactive)	> 100 µM (inactive)	> 100 µM (inactive)	> 100 µM (inactive)	> 100 µM (inactive)	> 100 µM (inactive)	> 100 µM (inactive)
